{
  "source": "patent US12702715B2",
  "about": "“Targeted RNA degradation allows precision repurposing of protein-targeted small molecule medicines to RNA” (University of Florida Research Foundation, Incorporated, priority 2020, dated 2026)",
  "key": {"pre-miR-21 mutant": {"system": "pre-miR-21 mutant", "experiment": "In vitro Chem-CLIP, pre-miR-21 mutant", "assay_type": "binding", "details": "1, 5, 20 or 100 μM", "protocol": "In Vitro Chemical Cross-linking and Isolation by Pull Down (Chem-CLIP) and Competitive Chem-CLIP (C-Chem-CLIP). Growth medium [RMPI 1640 medium with L-glutamine & 25 mM HEPES (Corning)] was inactivated by heating at 95° C. to for 15 min and slowly cooling to room temperature at benchtop. Pre-miR-21 labeled with ^32P at the 5′-end (~10,000 counts) was folded in growth medium by heating at 95° C. for 1 min and slowly cooling to room temperature. To the samples was added Chem-CLIP probe 4 (1, 5, 20 or 100 μM) or negative control probe 5 (1, 5, 20 or 100 μM), and the mixtures were incubated at 37° C. for 1 h. The samples were then cross-linked by irradiation with 365 nm light for 10 min. The Chem-CLIP probe 4 or control probe 5, whether or not cross-linked to the RNA, was then clicked to disulfide biotin azide (10 mM in DMSO; 10 μL per sample; 1168-10, Click Chemistry Tools) by incubating in a solution containing 1×HEPES buffer (25 mM, pH 7), sodium ascorbate (10 μL/sample, 250 mM in H2O), CuSO4 (10 μL/sample, 50 mM in H2O), THPTA (10 μL/sample, 50 mM in H2O) for 2 h at 37° C. […] The radioactive signal from bound RNAs (on the beads) and unbound RNAs (from the wash steps) were measured by using a Beckman Coulter LS6500 Liquid Scintillation Counter. Enrichment of pre-miR-21 was calculated as previously described^6. […]"}, "RNase L": {"target": "RNase L (Homo sapiens, UniProt Q05823)", "sequence (Q05823 whole entry, species assumed)": "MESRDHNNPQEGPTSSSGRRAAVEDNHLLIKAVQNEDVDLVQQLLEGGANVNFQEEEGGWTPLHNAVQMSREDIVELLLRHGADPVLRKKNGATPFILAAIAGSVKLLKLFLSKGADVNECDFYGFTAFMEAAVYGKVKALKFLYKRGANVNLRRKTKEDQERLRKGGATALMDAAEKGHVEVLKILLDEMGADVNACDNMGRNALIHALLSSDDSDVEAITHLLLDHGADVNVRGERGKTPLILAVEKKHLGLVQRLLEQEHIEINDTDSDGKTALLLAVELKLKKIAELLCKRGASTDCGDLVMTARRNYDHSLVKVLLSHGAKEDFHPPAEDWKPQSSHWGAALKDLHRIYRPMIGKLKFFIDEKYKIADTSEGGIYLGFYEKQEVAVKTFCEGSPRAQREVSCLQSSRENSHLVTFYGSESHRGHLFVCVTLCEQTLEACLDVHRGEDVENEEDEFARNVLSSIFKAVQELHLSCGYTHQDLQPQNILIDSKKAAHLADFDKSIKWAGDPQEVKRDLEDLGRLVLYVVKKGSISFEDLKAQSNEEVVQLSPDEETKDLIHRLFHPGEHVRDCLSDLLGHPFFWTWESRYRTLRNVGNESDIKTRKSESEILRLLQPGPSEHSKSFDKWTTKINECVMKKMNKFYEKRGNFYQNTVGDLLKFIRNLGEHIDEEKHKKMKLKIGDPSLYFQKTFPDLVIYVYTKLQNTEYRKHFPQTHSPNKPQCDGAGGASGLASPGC", "experiment": "In vitro RNase L oligomerization", "assay_type": "biochemical", "protocol": "In Vitro RNase L Oligomerization. To a solution of RNase L (3 μM) in 1× RNase L Buffer (add components) was added MgCl2, fresh β-mercaptoethanol, and ATP to final concentrations of 10 mM, 7 mM, and 50 μM respectively. The oligomerization of RNase L induced by small molecules was assessed as previously reported^6. The monomeric and oligomeric RNase L protein was resolved by Western blot and detected using an RNase L primary antibody (1:6000 dilution; Cell Signaling Technology, D4B4J). The blot was incubated with the antibody in 1×TBST (Tris-buffered saline supplemented with 0.1% (v/v) Tween-20) and 5% (w/v) nonfat dry milk at 4° C. overnight. After washing, the blot was incubated with 1:12000 anti-rabbit IgG, HRP-linked Antibody (Cell Signaling Technology, 7074S) in 1×TBST with 5% (w/v) nonfat dry milk for 1 h at room temperature. After washing with 1×TBST for 10 min three times, monomeric and oligomerized RNase L protein was detected by using SuperSignal West Pico Chemiluminescent Substrate (Pierce Biotechnology). ImageJ software was used for quantification."}, "[1]": {"target": "pre-miR-21's A-bulge (Dicer processing site in pre-miR-21)", "experiment": "Fluorescent binding affinity measurement, A-bulge RNA", "parameters": "species or system human", "protocol": "Fluorescent Binding Affinity Measurements. Binding assays were completed as previously described^5. Briefly, the RNA of interest was folded as described in the “Solution-based Dye Displacement Assay” section, including the addition of BSA. Then, 1 was added to the RNA solution to a final concentration of 0.5 μM. The solution was serial diluted with 1× AB2 containing 0.5 μM of 1. The solutions were incubated at room temperature in the dark for 30 min. The solutions were then transferred to a black 384-well plate. Fluorescence intensity was measured using a Tecan plate reader (Gain: 100, Integration time: 40 μs) with excitation wavelength of and emission wavelength of 355 nm and 535 nm, respectively. The change in fluorescence was normalized to samples lacking RNA. Binding affinity was calculated by using Equation 2, as previously described^5. I=I0+0.5Δε{([FL]0+[RNA]0+Kd)−(([FL]0+[RNA]0+Kd)^2−4[FL]0[RNA]0)^0.5} (2) where I and I0 are the measured fluorescence intensity of compound with or without RNA, respectively, Δε is the difference between the fluorescence intensity with infinite concentration of RNA or without RNA, [FL]0 and [RNA]0 are the concentrations of small molecule and RNA, respectively, and Kd is the dissociation constant."}, "[2]": {"system": "3×2 RNA internal loop library (3×2 ILL)", "experiment": "AbsorbArray 2DCS selection with Inforna fitness analysis", "assay_type": "binding, human", "protocol": "Construction of AbsorbArray Small Molecule Microarrays. Microarrays were constructed as previously reported^4. Briefly, a 1% agarose solution was poured onto a glass slide and dried on the benchtop. A 200 nL aliquot of 68 hit compounds (10 mM in DMSO) was pinned onto the array from a 384-well plate using Biomek NXP Laboratory Automation Workstation. Slides were then dried overnight to obtain a thin, invisible agarose layer. Slides were washed three times with 1×PBST^5 and then three times with nanopure water. Slides were dried completely in the air before RNA selection, completed by Two-Dimensional Combinatorial Screening (2DCS).\nRNA Selection and Screening by 2DCS. The 3×2 RNA ILL was 5′-end ^32P-labeled as previously described^7 and 2DCS selections were completed as previously described 4. All oligonucleotides were folded as described in the “Solution-based Dye Displacement Assay” section. Small molecule microarrays were pre-equilibrated by 3 mL 1× AB2 for 5 min. After removing the pre-equilibration buffer, 5′-end labeled folded 3×2 RNA ILL (~50,000 cpm) was added in 3 mL 1× AB2 containing 1 mM MgCl2 in the presence of competitor oligonucleotides (100 μM each). The oligonucleotide solution was evenly distributed across the microarray surface with a custom-cut piece of Parafilnm. After incubating for 30 min at room temperature, the Parafilm was removed, and the slide was washed gently by submersion in 1× AB2 for 30 s. This washing step was repeated three additional times, and the array was dried on the benchtop for 1 h. […] To harvest and collect the bound RNAs from the ILL, 1 μL of nanopure water was added to each spot. After 30 s, the water drop was absorbed into agarose gel, hydrating it such that it could be excised with a toothpick. The RNAs were eluted from the agarose by simple incubation with water, and then treated with RNase-free DNase I. A unique barcode for each small molecule was installed by reverse transcription (RT). Barcoded RNAs were amplified by PCR, purified, and identified by next-generation sequencing (NGS) using an Ion Proton deep sequencer using PI chips (60-80 million reads) as previously described^2."}},
  "note": "“Also recorded” adds a separate entry of the source.",
  "data": [
    {"compound": "C#CCCC1(CCC(=O)NCCN2CCN(c3ccc4[nH]c(-c5c(N)c6c(F)cccc6[nH]c5=O)nc4c3)CC2)N=N1", "note": "[Compound 4]", "values": [
      {"measurement": "enrichment of 32P-labeled pre-miR-21 mutant", "setting": "pre-miR-21 mutant", "value": "not mutant"}
    ]},
    {"compound": "CCOC(=O)C1=C(Nc2ccccc2)S/C(=C\\c2ccc(OCCOCCOCCOCCNC(=O)NCCN3CCN(c4ccc5[nH]c(-c6c(N)c7c(F)cccc7[nH]c6=O)nc5c4)CC3)c(O)c2)C1=O", "note": "[Compound 2, Ribotac-Dovitinib]", "values": [
      {"measurement": "RNase L oligomerization / dimerization", "setting": "RNase L", "value": "recruits and dimerizes; also recorded: oligomerized RNase L in a dose dependent manner"}
    ]},
    {"compound": "CN1CCN(c2ccc3nc(-c4c(N)c5c(F)cccc5[nH]c4=O)[nH]c3c2)CC1", "note": "[Compound 1, Dovitinib, reference compound]", "values": [
      {"measurement": "Kd", "setting": "[1]", "value": 3000, "unit": "nM"},
      {"measurement": "number of binding RNA motifs", "setting": "[2]; Zobs>8", "value": 256},
      {"measurement": "Fitness score of A bulge (5'GAC/3'C_G) in the Dicer processing site of pre-miR-21", "setting": "[2]; normalized to most significant motif = 100", "value": 85}
    ]}
  ]
}
